US8853238B2, “Fused heterocyclic compound and use thereof for pest control” (Sumitomo Chemical Company, Limited, priority 2010, dated 2014)

Columns and labels:
Assay type in all cases: in vivo
[1] = test system: Adoxophyes orana fasciata; assay: Test Example 8: spray on apple tree, release of Adoxophyes orana fasciata; conditions: in Malus domestica, 168 h; 500 ppm active ingredient; apple tree sprayed with 20 mL/cup; 60 first-instar Adoxophyes orana fasciata; after 7 days; read-out: Death rate
Description: On the other hand, an apple tree was planted in a plastic cup, and grown until the seventh-eighth leaf was spread. The apple tree was sprayed with 20 mL/cup of each of the test spray solution. After the test solution was dried, 60 first-instar Adoxophyes orana fasciata were released, and the cup was covered with a plastic cup upside-down which the bottom was cut off and a filter paper was put thereon. After 7 days, the number of living insects was counted, and a death rate was calculated according to the following equation: Death rate (%)=(Number of dead insects/Number of tested insects)×100

[2] = test system: Aphis gossypii; assay: Test Example 2: root immersion of cucumber seedling, then inoculation with Aphis gossypii; conditions: 168 h; 500 ppm active ingredient; cucumber root part immersed in 5 ml; 30 Aphis gossypii inoculated one day after treatment; examined after further seven days
Description: A root part of a cucumber seedling (the first true leaf stage) from which soil had been washed off was immersed in 5 ml of each of the diluted solutions, and one day after treatment, on the cucumber leaf surface was inoculated with 30 Aphis gossypii (whole stage). After further seven days, the number of insect of living Aphis gossypii parasitized on the leaves of the cucumber was examined, and a control value was calculated according to the following equation: Control value (%)={1−(Cb×Tai)/(Cai×Tb))×100 wherein symbols represent as follows: Cb: the number of insects in a non-treated section before treatment, Cai: the number of insects in a non-treated section in observation, Tb: the number of insects in a treated-section before treatment, Tai: the number of insects in a treated-section in observation; wherein the non-treated section represents a section where the test diluted solution prepared by diluting the formulation without the present compound in Formulation Example 5 with the same amount of water as in the treated-section was used.

[3] = test system: Nilaparvata lugens; assay: Test Example 4: spray on rice seedling, release of Nilaparvata lugens larvae; conditions: 144 h; 500 ppm active ingredient; rice seedling sprayed with 10 ml; third-fourth instar larvae of Nilaparvata lugens; after 6 days at 25° C.; read-out: Control value
[4] = test system: Bemisia tabaci; assay: Test Example 6: spray on tomato seedling with Bemisia tabaci instar larvae; conditions: 168 h; 500 ppm active ingredient; 20 ml/cup sprayed on tomato seedling with hatched Bemisia tabaci instar larvae; after 7 days at 25° C.
Description: On the other hand, Bemisia tabaci adult was released on a tomato seedling (the third true leaf stage) planted in a polyethylene cup, and made to lay eggs for about 72 hours. The tomato seedling was kept in a greenhouse for 8 days. When instar larvae hatched from the eggs, the above test spray solution was sprayed in the amount of 20 ml/cup. The cup was kept in a greenhouse at 25° C. After the keeping for 7 days, the number of surviving instar larvae on the tomato leaves was examined, and a control value was calculated according to the following equation: Control value (%)={1−(Cb×Tai)/(Cai×Tb))×100 wherein symbols represent as follows: Cb: the number of insects in a non-treated section before treatment, Cai: the number of insects in a non-treated section in observation, Tb: the number of insects in a treated-section before treatment, Tai: the number of insects in a treated-section in observation; wherein the non-treated section represents a section where the test spray solution prepared by diluting the formulation without the present compound in Formulation Example 5 with the same amount of water as in the treated-section was sprayed.

[5] = test system: Aphis gossypii; assay: Test Example 1: spray on cucumber seedling inoculated with Aphis gossypii; conditions: topical, 144 h; 500 ppm active ingredient (Formulation Example 5 diluted with water); 20 ml sprayed on cucumber seedling with about 30 Aphis gossypii; six days after spraying
Description: On the other hand, on a cucumber seedling (the first true leaf stage) planted in a plastic cup was inoculated with about 30 Aphis gossypii, and leaving it for a day. Twenty ml of each of the above test spray solutions was sprayed on this seedling. Six days after spraying, the number of the surviving Aphis gossypii parasitized on the leaves of the cucumber was examined, and a control value was calculated according to the following equation: Control value (%)={1−(Cb×Tai)/(Cai×Tb))×100 wherein symbols represent as follows: Cb: the number of insects in a non-treated section before treatment, Cai: the number of insects in a non-treated section in observation, Tb: the number of insects in a treated-section before treatment, Tai: the number of insects in a treated-section in observation; wherein the non-treated section represents a section where the test spray solution prepared by diluting the formulation without the present compound in Formulation Example 5 with the same amount of water as in the treated-section was sprayed.

[6] = test system: Aphis gossypii; assay: Test Example 3: drench at foot of cucumber seedling, then inoculation with Aphis gossypii; conditions: soil, 144 h, read-out: Control value
[7] = test system: Nilaparvata lugens; assay: Test Example 5: drench at foot of rice seedling, release of Nilaparvata lugens larvae; conditions: soil, 144 h; 500 ppm active ingredient; rice seedling drenched at its foot with 5 ml, kept 7 days; twenty third-fourth instar larvae of Nilaparvata lugens; examined after 6 days
Description: On the other hand, a rice seedling (2 weeks after sowing, the second leaf stage) planted in a plastic cup was drenched at its foot with 5 ml of each of the diluted solutions, and kept in a greenhouse of 25° C. for 7 days. Twenty third-fourth instar larvae of Nilaparvata lugens were released, and further kept in the greenhouse for 6 days, then the number of insect of living Nilaparvata lugens parasitized on the rice was examined, and a control value was calculated according to the following equation: Control value (%)={1−(Cb×Tai)/(Cai×Tb))×100 wherein symbols represent as follows: Cb: the number of insects in a non-treated section before treatment, Cai: the number of insects in a non-treated section in observation, Tb: the number of insects in a treated-section before treatment, Tai: the number of insects in a treated-section in observation; wherein the non-treated section represents a section where the test diluted solution prepared by diluting the formulation without the present compound in Formulation Example 5 with the same amount of water as in the treated-section was used.

[8] = 500 ppm active ingredient, cucumber seedling drenched at its foot with 5 ml, kept 7 days at 25° C., 30 Aphis gossypii inoculated, examined after 6 days

| Compound | pest or weed control at 500 ppm [1] | pest or weed control at 500 ppm [3] | pest or weed control at 500 ppm [4] | other results |
| --- | --- | --- | --- | --- |
| C=CCS(=O)(=O)c1ccccc1-c1nc2cc(C(F)(F)F)cnc2n1C [Present Compound 11, 2-(2-allylsulfonylphenyl)-3-methyl-6-trifluoromethyl-3H-imidazo[4,5-b]pyridine] | ≥ 90% |  |  |  |
| CC(C)[S+]([O-])c1ccccc1-c1nc2cc(C(F)(F)F)cnc2n1C (stereo not drawn) [Present Compound 13, 2-(2-isopropylsulfinylphenyl)-3-methyl-6-trifluoromethyl-3H-imidazo[4,5-b]pyridine] | ≥ 90% |  |  | pest or weed control at 500 ppm [2]: ≥ 90% |
| CC(C)S(=O)(=O)c1ccccc1-c1nc2cc(C(F)(F)F)cnc2n1C [Present Compound 14, 2-(2-isopropylsulfonylphenyl)-3-methyl-6-trifluoromethyl-3H-imidazo[4,5-b]pyridine] | ≥ 90% | ≥ 90% |  | pest or weed control at 500 ppm [2]: ≥ 90% |
| CCSc1ccccc1-c1nc2cc(C(F)(F)F)cnc2n1CC [Present Compound 21, 3-ethyl-2-(2-ethylsulfanylphenyl)-6-trifluoromethyl-3H-imidazo[4,5-b]pyridine] |  | ≥ 90% | ≥ 90% |  |
| CCn1c(-c2ccccc2[S+]([O-])CC)nc2cc(C(F)(F)F)cnc21 (stereo not drawn) [Present Compound 22, 2-(2-ethylsulfinylphenyl)-3-ethyl-6-trifluoromethyl-3H-imidazo[4,5-b]pyridine] | ≥ 90% |  | ≥ 90% |  |
| CCn1c(-c2ccccc2S(=O)(=O)CC)nc2cc(C(F)(F)F)cnc21 [Present Compound 23, 2-(2-ethylsulfonylphenyl)-3-ethyl-6-trifluoromethyl-3H-imidazo[4,5-b]pyridine] | ≥ 90% |  |  |  |
| CC[S+]([O-])c1ccccc1-c1nc2cc(C(F)(F)F)cnc2n1C(C)C (stereo not drawn) [Present Compound 28, 2-(2-ethylsulfinylphenyl)-3-isopropyl-6-trifluoromethyl-3H-imidazo[4,5-b]pyridine] | ≥ 90% |  |  |  |
| CCS(=O)(=O)c1ccccc1-c1nc2cc(C(F)(F)F)cnc2n1C(C)C [Present Compound 29, 2-(2-ethylsulfonylphenyl)-3-isopropyl-6-trifluoromethyl-3H-imidazo[4,5-b]pyridine] | ≥ 90% |  |  |  |
| CC[S+]([O-])c1ccccc1-c1nc2cc(C(F)(F)F)cnc2n1C1CC1 (stereo not drawn) [Present Compound 31, 3-cyclopropyl-2-(2-ethylsulfinylphenyl)-6-trifluoromethyl-3H-imidazo[4,5-b]pyridine] | ≥ 90% |  |  |  |
| CC[S+]([O-])c1ccccc1-c1nc2cc(C(F)(F)F)cc(Br)c2n1C (stereo not drawn) [Present Compound 75, 7-bromo-2-(2-ethylsulfinylphenyl)-1-methyl-5-trifluoromethyl-1H-benzimidazole] |  |  | ≥ 90% | pest or weed control at 500 ppm [5]: ≥ 90% |
| CCSc1c(Cl)cccc1-c1nc2cc(C(F)(F)F)cnc2n1C [Present Compound 88, 2-(3-chloro-2-ethylsulfanylphenyl)-3-methyl-6-trifluoromethyl-3H-imidazo[4,5-b]pyridine] |  |  | ≥ 90% | pest or weed control at 500 ppm [2]: ≥ 90% |
| CC[S+]([O-])c1c(Cl)cccc1-c1nc2cc(C(F)(F)F)cnc2n1C (stereo not drawn) [Present Compound 89, 2-(3-chloro-2-ethylsulfinylphenyl)-3-methyl-6-trifluoromethyl-3H-imidazo[4,5-b]pyridine] |  |  |  | pest or weed control at 500 ppm [2]: ≥ 90%; pest or weed control at 500 ppm [6, 8]: ≥ 90%; pest or weed control at 500 ppm [7]: ≥ 90% |
| CCS(=O)(=O)c1c(Cl)cccc1-c1nc2cc(C(F)(F)F)cnc2n1C [Present Compound 90, 2-(3-chloro-2-ethylsulfonylphenyl)-3-methyl-6-trifluoromethyl-3H-imidazo[4,5-b]pyridine] |  |  |  | pest or weed control at 500 ppm [6, 8]: ≥ 90%; pest or weed control at 500 ppm [7]: ≥ 90% |
| CCS(=O)(=O)c1ccccc1-c1nc2cc(C(F)(F)C(F)(F)C(F)(F)F)cnc2n1C [Present Compound 130, 2-(2-ethylsulfonylphenyl)-6-heptafluoropropyl-3-methyl-3H-imidazo[4,5-b]pyridine] |  |  |  | pest or weed control at 500 ppm ([6]; Aphis gossypii): ≥ 90%; pest or weed control at 500 ppm [7]: ≥ 90% |
| CCSc1ccccc1-c1nc2cc(SC(F)(F)F)cnc2n1C [Present Compound 161, 2-(2-ethylsulfanyl-phenyl)-3-methyl-6-trifluoromethylsulfanyl-3H-imidazo[4,5-b]pyridine] | ≥ 90% | ≥ 90% | ≥ 90% | pest or weed control at 500 ppm [5]: ≥ 90% |
| Cn1c(-c2ccccc2S(=O)(=O)CC(F)(F)F)nc2cc(C(F)(F)F)cnc21 [compound 188] |  | ≥ 90% | ≥ 90% | pest or weed control at 500 ppm [5]: ≥ 90% |
| CCS(=O)(=O)c1cc(C(F)(F)F)ccc1-c1nc2cc(C(F)(F)F)cnc2s1 [compound 251, 2-[2-ethylsulfonyl-4-(trifluoromethyl)phenyl]-6-(trifluoromethyl)thiazolo[5,4-b]pyridine] | ≥ 90% | ≥ 90% |  | pest or weed control at 500 ppm [7]: ≥ 90% |
| CCS(=O)(=O)c1ccccc1-c1nc2cc(S(C)(=O)=O)cnc2n1C [compound 254, 2-(2-ethylsulfonylphenyl)-6-methylsulfonyl3-methyl-3H-imidazo[4,5-b]pyridine] |  |  |  | pest or weed control at 500 ppm [2]: ≥ 90%; pest or weed control at 500 ppm [6, 8]: ≥ 90% |
| CCS(=O)(=O)c1cc(C(F)(F)F)ccc1-c1nc2cc(S(=O)(=O)C(F)(F)F)cnc2n1C [compound 302, 2-(2-ethylsulfonyl-4-trifluoromethylphenyl)-3-methyl-6-trifluoromethylsulfonyl-3H-imidazo[4,5-b]pyridine] |  |  |  | pest or weed control at 500 ppm [6, 8]: ≥ 90% |
| CCS(=O)(=O)c1cc(S(F)(F)(F)(F)F)ccc1-c1nc2cc(C(F)(F)F)cnc2n1C [compound 343, 2-(2-ethylsulfonyl-4-(pentafluorosulphur)phenyl)-3-methyl-6-trifluoromethyl-3H-imidazo[4,5-b]pyridine] |  | ≥ 90% | ≥ 90% | pest or weed control at 500 ppm [5]: ≥ 90%; pest or weed control at 500 ppm [7]: ≥ 90% |
